The results in this text go back to PubChem BioAssay AID330 (DTP/NCI, 2004).

This assay has as its system P388 leukemia ip, CD2F1 mice, survival T/C. Nature of the assay: NCI In Vivo Anticancer Drug Screen. Data for tumor model P388 Leukemia (intraperitoneal) in CD2F1 (CDF1) mice. As to conditions: endpoint: median survival time, higher = longer survival. A digest of the protocol: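 Mice carrying the transplanted tumor received test compound or vehicle. Survival was recorded in each group, and the value is the treated-group measurement divided by that of the vehicle-treated control group.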

[1] abbreviates: dose: 60.0 mg/kg/injection, schedule: Q01DX005 (ip), vehicle: saline with Tween-80.
The mark [2] stands for this setting: dose: 120.0 mg/kg/injection, schedule: Q01DX005 (ip), vehicle: saline with Tween-80.
The mark [3] stands for this setting: dose: 240.0 mg/kg/injection, schedule: Q01DX005 (ip), vehicle: saline with Tween-80.
[4] abbreviates: dose: 100.0 mg/kg/injection, schedule: Q04DX003 (ip), vehicle: saline.
The mark [5] stands for this setting: dose: 50.0 mg/kg/injection, schedule: Q01DX009 (ip), vehicle: Klucel (hydroxypropylcellulose) (HPC).
Setting [6] is: dose: 100.0 mg/kg/injection, schedule: Q01DX009 (ip), vehicle: Klucel (hydroxypropylcellulose) (HPC).
Where [7] appears, read: dose: 50.0 mg/kg/injection, schedule: Q01DX005 (ip), vehicle: saline with Tween-80.
The mark [8] stands for this setting: dose: 50.0 mg/kg/injection, schedule: Q01DX009 (ip), vehicle: saline with Tween-80.
Where [9] appears, read: dose: 100.0 mg/kg/injection, schedule: Q01DX009 (ip), vehicle: saline with Tween-80.
Where [10] appears, read: dose: 200.0 mg/kg/injection, schedule: Q01DX009 (ip), vehicle: saline with Tween-80.
[11] abbreviates: dose: 50.0 mg/kg/injection, schedule: Q01DX001 (ip), vehicle: saline with Tween-80.

Molecules are shown by their SMILES. Values joined by “and” are separate entries in the source; they are usually repeats but may differ in a detail not shown here. Equal entries are not always repeated. Inconclusive results and toxic doses are left out.

On to `O=C1NC2NC(=O)NC2N1` (configuration not stated), for which the T/C by setting is: (dose: 100.0 mg/kg/injection, schedule: Q04DX003 (ip), vehicle: Klucel (hydroxypropylcellulose) (HPC)) 94 % of control; (dose: 200.0 mg/kg/injection, schedule: Q04DX003 (ip), vehicle: Klucel (hydroxypropylcellulose) (HPC)) 107 % of control; (dose: 400.0 mg/kg/injection, schedule: Q04DX003 (ip), vehicle: Klucel (hydroxypropylcellulose) (HPC)) 100 % of control.
For the compound `Cc1cccc2c(Nc3ccc(NS(C)(=O)=O)cc3)c3ccccc3nc12`, the T/C was 111 % of control (dose: 0.53 mg/kg/injection, schedule: Q01DX009 (ip), vehicle: saline); 124 % of control (dose: 0.8 mg/kg/injection, schedule: Q01DX009 (ip), vehicle: saline); 166 % of control (dose: 7.5 mg/kg/injection, schedule: Q01DX009 (ip), vehicle: saline with Tween-80); 168 % of control (dose: 33.0 mg/kg/injection, schedule: Q04DX003 (ip), vehicle: saline with Tween-80); 163 % of control (dose: 50.0 mg/kg/injection, schedule: Q04DX003 (ip), vehicle: saline with Tween-80); 163 % of control and 181 % of control (dose: 75.0 mg/kg/injection, schedule: Q04DX003 (ip), vehicle: saline with Tween-80). Moreover, the T/C is 181 % of control (dose: 150.0 mg/kg/injection, schedule: Q04DX003 (ip), vehicle: saline with Tween-80) and 122 % of control (dose: 300.0 mg/kg/injection, schedule: Q04DX003 (ip), vehicle: saline with Tween-80).
For `CC(O)(CO)C(C)(O)c1cn(O)c(=N)c(C(=O)OCc2ccccc2)n1` (configuration not stated), the T/C runs as follows: (dose: 100.0 mg/kg/injection, schedule: Q01DX001 (ip), vehicle: saline) 99 % of control; (dose: 200.0 mg/kg/injection, schedule: Q01DX001 (ip), vehicle: saline) 95 % of control; (dose: 400.0 mg/kg/injection, schedule: Q01DX001 (ip), vehicle: saline) 88 % of control.
On to `CCCCCC(CN(C)C)C(=O)CC(SCC)c1ccc(Cl)c(Cl)c1` (configuration not stated), for which the T/C reads like this: (dose: 6.25 mg/kg/injection, schedule: Q01DX009 (ip), vehicle: water) 102 % of control and 113 % of control; (dose: 12.5 mg/kg/injection, schedule: Q01DX009 (ip), vehicle: water) 107 % of control and 109 % of control and 111 % of control; (dose: 25.0 mg/kg/injection, schedule: Q01DX009 (ip), vehicle: water) 107 % of control and 120 % of control and 95 % of control; (dose: 50.0 mg/kg/injection, schedule: Q01DX009 (ip), vehicle: water) 101 % of control and 112 % of control and 115 % of control; (dose: 100.0 mg/kg/injection, schedule: Q01DX009 (ip), vehicle: water) 108 % of control.
As for `O=C(CC1=NC2NN(c3ccccc3)C(=O)C2=C1CC(=O)c1ccc([N+](=O)[O-])cc1)c1ccc([N+](=O)[O-])cc1` (configuration not stated), the T/C is, setting by setting: under setting [1], 99 % of control; under setting [2], 105 % of control; under setting [3], 104 % of control.
With `Cc1ccc(Cl)cc1S`, the T/C is 95 % of control (dose: 50.0 mg/kg/injection, schedule: Q04DX003 (ip), vehicle: saline) and 95 % of control under setting [4].
`C[Si](C)(C)N[Si](C)(C)C`: the T/C was 100 % of control under setting [5] and 102 % of control under setting [6].
In the case of `O=C(N=[N+]([O-])c1ccccc1)c1ccccc1`, the T/C runs as follows: (dose: 3.12 mg/kg/injection, schedule: Q01DX001 (ip), vehicle: saline with Tween-80) 107 % of control; (dose: 6.25 mg/kg/injection, schedule: Q01DX001 (ip), vehicle: saline with Tween-80) 110 % of control; (dose: 6.25 mg/kg/injection, schedule: Q04DX003 (ip), vehicle: saline with Tween-80) 109 % of control and 118 % of control; (dose: 12.5 mg/kg/injection, schedule: Q01DX001 (ip), vehicle: saline with Tween-80) 99 % of control; (dose: 12.5 mg/kg/injection, schedule: Q04DX003 (ip), vehicle: saline with Tween-80) 114 % of control and 117 % of control; (dose: 25.0 mg/kg/injection, schedule: Q04DX003 (ip), vehicle: saline with Tween-80) 89 % of control and 95 % of control.
For `CCCCC(S)CS` (configuration not stated), the T/C runs as follows: (dose: 12.5 mg/kg/injection, schedule: Q01DX005 (ip), vehicle: saline with Tween-80) 107 % of control; (dose: 25.0 mg/kg/injection, schedule: Q01DX005 (ip), vehicle: saline with Tween-80) 103 % of control; under setting [7], 107 % of control and 110 % of control.
As for `O=C(N/C(=C\c1ccc(Cl)cc1)c1nc2ccccc2s1)c1ccccc1`, the T/C runs as follows: under setting [1], 111 % of control; under setting [2], 113 % of control; under setting [3], 113 % of control.
Turning to `O/C(=C\C(=S)S)c1ccccc1`, the T/C (dose: 1.56 mg/kg/injection, schedule: Q04DX003 (ip), vehicle: Klucel (hydroxypropylcellulose) (HPC)) was 96 % of control; the T/C (dose: 3.12 mg/kg/injection, schedule: Q04DX003 (ip), vehicle: Klucel (hydroxypropylcellulose) (HPC)) was 96 % of control; the T/C (dose: 6.25 mg/kg/injection, schedule: Q04DX003 (ip), vehicle: Klucel (hydroxypropylcellulose) (HPC)) is 97 % of control.
For the compound `O=c1c2cc3ccccc3cc2c(=O)n2n1CC=CC2`, the T/C runs as follows: under setting [5], 97 % of control; under setting [6], 90 % of control.
`CC1=CSC2=NCCCCN12`: the T/C (dose: 6.25 mg/kg/injection, schedule: Q01DX009 (ip), vehicle: saline) was 91 % of control; the T/C (dose: 12.5 mg/kg/injection, schedule: Q01DX009 (ip), vehicle: saline) is 93 % of control; the T/C (dose: 25.0 mg/kg/injection, schedule: Q01DX009 (ip), vehicle: saline) was 92 % of control.
As for `CC(NC(=O)C(N)Cc1ccc(Cl)cc1)P(=O)(O)O` (configuration not stated), the T/C (dose: 12.5 mg/kg/injection, schedule: Q04DX002 (ip), vehicle: saline with Tween-80) is 100 % of control; the T/C (dose: 25.0 mg/kg/injection, schedule: Q04DX002 (ip), vehicle: saline with Tween-80) is 94 % of control; the T/C (dose: 50.0 mg/kg/injection, schedule: Q04DX002 (ip), vehicle: saline with Tween-80) was 103 % of control.
Take `CC12CCC(C(=O)C1=O)C2(C)C` (configuration not stated): the T/C is 102 % of control under setting [8]; 93 % of control under setting [9]; 95 % of control under setting [10]; 97 % of control (dose: 400.0 mg/kg/injection, schedule: Q01DX009 (ip), vehicle: saline with Tween-80).
Consider `CC1(CN2CCCC2)CCC(NC(=O)C(c2ccccc2)c2ccccc2)C(C)(C)O1` (configuration not stated), for which the T/C runs as follows: (dose: 25.0 mg/kg/injection, schedule: Q01DX001 (ip), vehicle: saline with Tween-80) 107 % of control; under setting [11], 104 % of control.
As to `CC1(c2ccccc2)NN(S(=O)(=O)c2ccccc2)C(c2ccccc2)(c2ccccc2)/C1=N/Nc1ccccc1` (configuration not stated), the T/C runs as follows: under setting [11], 93 % of control; (dose: 100.0 mg/kg/injection, schedule: Q01DX001 (ip), vehicle: saline with Tween-80) 88 % of control; (dose: 200.0 mg/kg/injection, schedule: Q01DX001 (ip), vehicle: saline with Tween-80) 89 % of control.
For the compound `CCCCN(CCCC)CC(O)c1cc2ccccc2c2cc(Br)ccc12` (configuration not stated), the T/C runs as follows: under setting [7], 100 % of control; (dose: 100.0 mg/kg/injection, schedule: Q01DX005 (ip), vehicle: saline with Tween-80) 102 % of control; (dose: 200.0 mg/kg/injection, schedule: Q01DX005 (ip), vehicle: saline with Tween-80) 100 % of control.
Turning to `COC(=O)/C(C#N)=C1\C(=O)OCC1(C)C`, the T/C was 104 % of control under setting [4]; 94 % of control (dose: 200.0 mg/kg/injection, schedule: Q04DX003 (ip), vehicle: saline); 98 % of control (dose: 400.0 mg/kg/injection, schedule: Q04DX003 (ip), vehicle: saline).
With `O=C(O)c1cc2ccccc2c2c3c(ccc12)OCO3`, the T/C reads like this: under setting [1], 95 % of control; under setting [2], 100 % of control; under setting [3], 100 % of control.
Take `CC1C(c2ccccc2)OC2N1CN(C(C)(C)C)CC2(C)C` (configuration not stated): the T/C under setting [8] was 100 % of control, the T/C under setting [9] is 104 % of control and the T/C under setting [10] was 105 % of control.
`FC(F)(F)C1(C(F)(F)F)[O][Sb]([c]2ccc(Cl)cc2)([c]2ccc(Cl)cc2)([c]2ccc(Cl)cc2)[O]1`: the T/C reads like this: under setting [5], 103 % of control; under setting [6], 88 % of control.
